Test results taken from PubChem BioAssay (NCI).
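The compound was tested at five concentrations on cells cultured in 96-well plates, with a 48-hour exposure period. At the GI50, growth is halved. TGI is the concentration that stops growth completely.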

How the values were obtained:
Assay in all cases: NCI tumour cell line growth inhibition, 48 h
SK-MEL-28 melanoma = test system: SK-MEL-28 melanoma
KM12 colon = test system: KM12 colon
SR leukemia = test system: SR leukemia
M14 melanoma = test system: M14 melanoma
IGROV1 ovarian = test system: IGROV1 ovarian
MALME-3M melanoma = test system: MALME-3M melanoma
CAKI-1 renal = test system: CAKI-1 renal
HOP-62 NSCLC = test system: HOP-62 NSCLC
786-0 renal = test system: 786-0 renal
HL-60(TB) leukemia = test system: HL-60(TB) leukemia
SNB-19 CNS = test system: SNB-19 CNS
A498 renal = test system: A498 renal
U251 CNS = test system: U251 CNS
SNB-75 CNS = test system: SNB-75 CNS
RXF 393 renal = test system: RXF 393 renal
SK-MEL-2 melanoma = test system: SK-MEL-2 melanoma
HCT-15 colon = test system: HCT-15 colon
DU-145 prostate = test system: DU-145 prostate
HS 578T breast = test system: HS 578T breast
NCI-H23 lung = test system: NCI-H23 lung
T-47D breast = test system: T-47D breast
ACHN renal = test system: ACHN renal
RPMI-8226 leukemia = test system: RPMI-8226 leukemia
UACC-257 melanoma = test system: UACC-257 melanoma
SF-295 CNS = test system: SF-295 CNS
SF-539 CNS = test system: SF-539 CNS
A549 NSCLC = test system: A549 NSCLC
SK-OV-3 ovarian = test system: SK-OV-3 ovarian
NCI-H522 lung = test system: NCI-H522 lung
OVCAR-3 ovarian = test system: OVCAR-3 ovarian
SW-620 colon = test system: SW-620 colon
MDA-MB-231 breast = test system: MDA-MB-231 breast
SF-268 CNS = test system: SF-268 CNS
HOP-92 NSCLC = test system: HOP-92 NSCLC
HT29 colon = test system: HT29 colon
OVCAR-4 ovarian = test system: OVCAR-4 ovarian
NCI-H226 lung = test system: NCI-H226 lung
OVCAR-5 ovarian = test system: OVCAR-5 ovarian
NCI-H460 lung = test system: NCI-H460 lung
PC-3 prostate = test system: PC-3 prostate
SN12C renal = test system: SN12C renal
K-562 leukemia = test system: K-562 leukemia
HCT-116 colon = test system: HCT-116 colon
MOLT-4 leukemia = test system: MOLT-4 leukemia
MDA-MB-435 = test system: MDA-MB-435
COLO 205 colon = test system: COLO 205 colon
MCF7 breast = test system: MCF7 breast
CCRF-CEM leukemia = test system: CCRF-CEM leukemia
BT-549 breast = test system: BT-549 breast
EKVX NSCLC = test system: EKVX NSCLC
TK-10 renal = test system: TK-10 renal
NCI/ADR-RES ovarian = test system: NCI/ADR-RES ovarian
UACC-62 melanoma = test system: UACC-62 melanoma
LOX IMVI melanoma = test system: LOX IMVI melanoma
UO-31 renal = test system: UO-31 renal
OVCAR-8 ovarian = test system: OVCAR-8 ovarian
HCC-2998 colon = test system: HCC-2998 colon
SK-MEL-5 melanoma = test system: SK-MEL-5 melanoma

Molecule `CNCCN(C)c1ccc(Nc2cc(NC3CC3)n3ncc(C#N)c3n2)cc1NC(C)=O` has a GI50 (SK-MEL-28 melanoma) of 39.3 nM, a TGI (SK-MEL-28 melanoma) of 18600 nM and a GI50 (KM12 colon) of 25.9 nM. For the same molecule, the TGI (KM12 colon) was > 80100 nM, the GI50 (SR leukemia) was < 10 nM and the TGI (SR leukemia) was 5730 nM. For the same molecule, the GI50 (M14 melanoma) was < 11.8 nM, the TGI (M14 melanoma) was 452 nM and the GI50 (IGROV1 ovarian) was < 10.7 nM. For the same molecule, the TGI (IGROV1 ovarian) was 961 nM, the GI50 (MALME-3M melanoma) was 16.6 nM and the TGI (MALME-3M melanoma) was 3180 nM. For the same molecule, the GI50 (CAKI-1 renal) was 12.3 nM, the TGI (CAKI-1 renal) was 153 nM and the GI50 (HOP-62 NSCLC) was 27.5 nM. The TGI (HOP-62 NSCLC) was > 54400 nM, the GI50 (786-0 renal) was 43.6 nM and the TGI (786-0 renal) was 13500 nM. For the same molecule, the GI50 (HL-60(TB) leukemia) was < 10 nM, the TGI (HL-60(TB) leukemia) was 498 nM and the GI50 (SNB-19 CNS) was < 10 nM. For the same molecule, the TGI (SNB-19 CNS) was > 100000 nM, the GI50 (A498 renal) was < 11.7 nM and the TGI (A498 renal) was < 26 nM. For the same molecule, the GI50 (U251 CNS) was < 10 nM, the TGI (U251 CNS) was > 100000 nM and the GI50 (SNB-75 CNS) was < 10 nM. It also gave a TGI (SNB-75 CNS) of 51.9 nM, a GI50 (RXF 393 renal) of 10 nM and a TGI (RXF 393 renal) of 34.2 nM. It also gave a GI50 (SK-MEL-2 melanoma) of 20.2 nM, a TGI (SK-MEL-2 melanoma) of 445 nM and a GI50 (HCT-15 colon) of 290 nM. The TGI (HCT-15 colon) was > 100000 nM, the GI50 (DU-145 prostate) was 45.2 nM and the TGI (DU-145 prostate) was > 100000 nM. The GI50 (HS 578T breast) was < 10 nM, the TGI (HS 578T breast) was 117 nM and the GI50 (NCI-H23 lung) was < 10 nM. For the same molecule, the TGI (NCI-H23 lung) was 237 nM, the GI50 (T-47D breast) was < 10 nM and the TGI (T-47D breast) was 1340 nM. The GI50 (ACHN renal) was 73 nM, the TGI (ACHN renal) was 15400 nM and the GI50 (RPMI-8226 leukemia) was < 10 nM. The TGI (RPMI-8226 leukemia) was 2640 nM, the GI50 (UACC-257 melanoma) was 16.3 nM and the TGI (UACC-257 melanoma) was 10700 nM. The GI50 (SF-295 CNS) was 27.7 nM, the TGI (SF-295 CNS) was 12500 nM and the GI50 (SF-539 CNS) was 14 nM. The TGI (SF-539 CNS) was 2360 nM, the GI50 (A549 NSCLC) was 18.8 nM and the TGI (A549 NSCLC) was 12500 nM. The GI50 (SK-OV-3 ovarian) was 35.7 nM, the TGI (SK-OV-3 ovarian) was 668 nM and the GI50 (NCI-H522 lung) was < 10 nM. The TGI (NCI-H522 lung) was 1130 nM, the GI50 (OVCAR-3 ovarian) was < 10 nM and the TGI (OVCAR-3 ovarian) was 869 nM. The GI50 (SW-620 colon) was < 10 nM, the TGI (SW-620 colon) was 209 nM and the GI50 (MDA-MB-231 breast) was < 10 nM. For the same molecule, the TGI (MDA-MB-231 breast) was 2170 nM, the GI50 (SF-268 CNS) was 18.2 nM and the TGI (SF-268 CNS) was 16400 nM. The GI50 (HOP-92 NSCLC) was < 10 nM, the TGI (HOP-92 NSCLC) was 46.6 nM and the GI50 (HT29 colon) was < 10 nM. For the same molecule, the TGI (HT29 colon) was > 100000 nM, the GI50 (OVCAR-4 ovarian) was < 10 nM and the TGI (OVCAR-4 ovarian) was > 39200 nM. For the same molecule, the GI50 (NCI-H226 lung) was < 10 nM, the TGI (NCI-H226 lung) was 1230 nM and the GI50 (OVCAR-5 ovarian) was < 10 nM. For the same molecule, the TGI (OVCAR-5 ovarian) was > 28500 nM, the GI50 (NCI-H460 lung) was < 10 nM and the TGI (NCI-H460 lung) was 12400 nM. The GI50 (PC-3 prostate) was < 10 nM, the TGI (PC-3 prostate) was 13200 nM and the GI50 (SN12C renal) was 75.2 nM. The TGI (SN12C renal) was > 64200 nM, the GI50 (K-562 leukemia) was < 13.8 nM and the TGI (K-562 leukemia) was > 40100 nM. The GI50 (HCT-116 colon) was < 10 nM, the TGI (HCT-116 colon) was 195 nM and the GI50 (MOLT-4 leukemia) was 18.6 nM. For the same molecule, the GI50 (MDA-MB-435) was 16.1 nM, the TGI (MDA-MB-435) was > 41100 nM and the GI50 (COLO 205 colon) was < 10 nM. For the same molecule, the TGI (COLO 205 colon) was 2330 nM, the GI50 (MCF7 breast) was < 10 nM and the TGI (MCF7 breast) was 1590 nM. The GI50 (CCRF-CEM leukemia) was < 10 nM, the TGI (CCRF-CEM leukemia) was 6000 nM and the GI50 (BT-549 breast) was < 14 nM. For the same molecule, the TGI (BT-549 breast) was 165 nM, the GI50 (EKVX NSCLC) was < 13 nM and the TGI (EKVX NSCLC) was 4040 nM. For the same molecule, the GI50 (TK-10 renal) was < 10 nM, the TGI (TK-10 renal) was 45.3 nM and the GI50 (NCI/ADR-RES ovarian) was 3360 nM. The TGI (NCI/ADR-RES ovarian) was > 100000 nM, the GI50 (UACC-62 melanoma) was 19.5 nM and the TGI (UACC-62 melanoma) was 149 nM. It also gave a GI50 (LOX IMVI melanoma) of 20.4 nM, a TGI (LOX IMVI melanoma) of 390 nM and a GI50 (UO-31 renal) of 143 nM. The TGI (UO-31 renal) was 3790 nM, the GI50 (OVCAR-8 ovarian) was 59.2 nM and the TGI (OVCAR-8 ovarian) was > 100000 nM. For the same molecule, the GI50 (HCC-2998 colon) was 17.5 nM, the TGI (HCC-2998 colon) was 16400 nM and the GI50 (SK-MEL-5 melanoma) was < 10 nM. It also gave a TGI (SK-MEL-5 melanoma) of 462 nM.
